Data as given in PMC4240912, “Multifaceted interplay between lipophilicity, protein interaction and luminescence parameters of non-intercalative ruthenium(II) polypyridyl complexes controlling cellular imaging and cytotoxic properties” (Journal of Biological Inorganic Chemistry, 2014).
Like-named read-outs stand apart in the source and are kept apart here.

Tests used:
[1] = target: human serum albumin (HSA) (Homo sapiens, UniProt P02768); assay: Luminescence quantum yield and lifetime in the presence of HSA
Chain of human serum albumin (HSA) (P02768 25-609): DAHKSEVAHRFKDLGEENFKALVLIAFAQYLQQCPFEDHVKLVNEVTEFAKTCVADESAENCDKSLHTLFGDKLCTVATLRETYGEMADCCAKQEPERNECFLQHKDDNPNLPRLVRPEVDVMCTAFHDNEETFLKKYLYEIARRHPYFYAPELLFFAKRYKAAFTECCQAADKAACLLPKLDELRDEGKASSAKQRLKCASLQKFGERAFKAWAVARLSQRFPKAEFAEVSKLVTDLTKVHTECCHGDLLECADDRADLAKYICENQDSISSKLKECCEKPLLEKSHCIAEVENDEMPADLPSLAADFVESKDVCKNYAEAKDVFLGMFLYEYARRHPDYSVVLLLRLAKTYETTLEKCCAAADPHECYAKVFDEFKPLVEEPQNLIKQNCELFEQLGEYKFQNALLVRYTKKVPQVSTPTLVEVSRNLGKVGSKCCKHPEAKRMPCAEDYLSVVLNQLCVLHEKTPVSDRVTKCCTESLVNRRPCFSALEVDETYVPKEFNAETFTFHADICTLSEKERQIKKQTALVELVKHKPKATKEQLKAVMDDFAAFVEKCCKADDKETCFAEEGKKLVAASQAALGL
Protocol: The protein stock solution was prepared by dissolving human serum albumin (HSA) in water and its concentration was determined spectrophotometrically from the molar absorptivity of 4.4 × 10^4 cm^−1 M^−1 at 280 nm. The emission spectra were recorded between 305 and 500 nm upon excitation at 295 nm resulting in selective excitation of tryptophan residue of HSA. The average of three scans was subjected to smoothing and the fluorescence intensities were corrected due to dilution effects. Protein-binding experiments were conducted by measuring fluorescence spectra of protein solution (1 μM) in the presence of different amounts of ruthenium compounds (0–10 μM) in PBS buffer pH 7.4 at 37 °C. Ru–protein solutions were allowed to incubate for 5 min before the emission spectra were recorded. The quantum yield and lifetime of luminescence for ruthenium complexes in the present of HSA (1 μM) was measured using the same procedure as described for ruthenium complexes alone (the HSA/Ru-complex ratio is given in the figure caption).

4T1 cells = assay: Ruthenium uptake / cell luminescence measured by flow cytometry; format: cell-based; settings: 4T1, [Ru-complex] = 2 µM, 24 h, medium without or with serum (2 %)
Protocol: 4T1 cells were seeded in a 24-well plate with a density of 2 × 10^5 cells per cm^2. 24 h after the seeding Ru(II) compounds were added at 2 µM concentration and incubated for 24 h in medium with or without serum (2 %). Then cells were washed with PBS, detached by trypsin treatment and analyzed by BDLSR cytometer with an excitation wavelength of 488 nm and an emission wavelength of 575 ± 13 nm.

[2] = aqueous solution, ref [11], cited from earlier work

Compound: [Ru(dip)2(1,3-dicyclohexyl-1-[4-carbonyl-(4′-methyl-2,2′-bipyridyl)]-urea)]Cl2 [[Ru(dip)2(CH3bpy-DCU)]^2+]
- φ, quantum yield of luminescence ([1]; PBS pH 7.4, [HSA]/[Ru] = 1): 0.0472
- φ, quantum yield of luminescence ([1]; PBS pH 7.4, in the absence of HSA): 0.0076
- luminescence of cells (flow cytometry) (4T1 cells): highest luminescence

Compound: O=[N+]([O-])c1nccn1CCCc1ccnc(-c2ccccn2)c1.[Ru+2].c1ccc(-c2ccnc3c2ccc2c(-c4ccccc4)ccnc23)cc1.c1ccc(-c2ccnc3c2ccc2c(-c4ccccc4)ccnc23)cc1 [[Ru(dip)2(bpy-NitroIm)]^2+]
- τ, luminescence lifetime ([2]; air-equilibrated conditions): 810 ± 10 ns
- φ, quantum yield of luminescence ([2]; air-equilibrated conditions): 0.0103 ± 0.0004
- τ, luminescence lifetime ([2]; deoxygenated conditions): 1.91 ± 0.01 µs
- φ, quantum yield of luminescence ([2]; deoxygenated conditions): 0.0341 ± 0.0004
